According to patent US20230107642A1 (Erasca, Inc., priority 2020, published 2023):

Target: T1, Cys12 of the KRAS 4B G12C protein (Homo sapiens, UniProt P01116, G12C)
T1 construct: This protein contained 188 amino acids in total, including an N-terminal 6-Histidine tag; made in house; host or cells: E. coli BL21
Experiment: In vitro covalent adduct formation (CAF) assay, LC-MS intact mass
Assay type: binding
Conditions: 10 uM compound
Method: This Example provides a protocol for assessing covalent adduct formation (CAF) between the compounds of the present application and KRAS.
In vitro covalent adduct formation assay: Covalent adduct formation (CAF) reactions between Cys12 of the KRAS 4B G12C protein and some of the compounds of Tables 1 to 4 were measured in vitro using liquid chromatography-mass spectrometry (LC-MS).
Recombinant Human KRAS 4B protein containing the G12C mutation was used in compound screening experiments. This protein contained 188 amino acids in total, including an N-terminal 6-Histidine tag, followed by a Tobacco Etch Virus (TEV) tag, followed by residues 1-169 of the native KRAS 4B sequence. The exact mass of the protein was 21,310 Da as determined by mass spectrometry. The full amino acid sequence is shown below: […]
The recombinant protein was expressed in E. coli BL21 cells and purified using affinity chromatography via a Ni-NTA column. Protein stocks were nucleotide-exchanged to >95% GDP, concentrated to 4 mg/mL, and stored at −80° C. in storage buffer (50 mM HEPES pH 7.4, 50 mM NaCl, 5 mM MgCl2, 1 mM DTT). Pure KRAS 4B G12C protein was diluted to a concentration of 5 μM in Tris Buffered Saline, pH 7.4. The compounds were dissolved in DMSO and added to the diluted protein to make a 10 μM concentration. The total DMSO concentration in the reaction was 4%. The reaction was mixed by pipetting and incubated at 22° C. for one hour. Aliquots of the reaction were taken over time and diluted 2:1 in 0.1% formic acid. The intact mass of the protein samples was measured by LC-MS using a QExactive+ mass spectrometer (Thermo Scientific). An amount of 500 ng total protein was injected onto a C8 reverse phase column, eluted with a seven-minute gradient of 30%-90% acetonitrile/0.1% formic acid, and analyzed for intact mass by the mass spectrometer. Adducts identified were confirmed to be within 1 Dalton of the expected mass, and the relative ratios of free:adduct protein were used to quantify the percentage of protein bound by the compound. CAF reactions were run in duplicate, with a typical variability of ±5%.

C=CC(=O)N1[C@H](C)CN(c2nc(=O)n3c4c(c(-c5cc(Cl)c(F)cc5F)c(C(F)(F)F)cc24)SC[C@@H](N2CCOCC2)C3)C[C@@H]1C (atropisomer, axis not shown) [Example 1136, (3S,11R)-8-((3S,5R)-4-acryloyl-3,5-dimethylpiperazin-1-yl)-11-(5-chloro-2,4-difluorophenyl)-3-morpholino-10-(trifluoromethyl)-3,4-dihydro-2H,6H-[1,4]thiazepino [2,3,4-ij]quinazolin-6-one]
% CAF 10 uM @ 60 min (60 min incubation): 82.7%

C=CC(=O)N1[C@H](C)CN(c2nc(=O)n3c4c(c(-c5cc(Cl)c(F)cc5F)c(C(F)(F)F)cc24)SC[C@@H](N2CCCC2)C3)C[C@@H]1C (atropisomer, axis not shown) [Example 1137, (3S,11R)-8-((3S,5R)-4-acryloyl-3,5-dimethylpiperazin-1-yl)-11-(5-chloro-2,4-difluorophenyl)-3-(pyrrolidin-1-yl)-10-(trifluoromethyl)-3,4-dihydro-2H,6H-[1,4]thiazepino [2,3,4-ij]quinazolin-6-one]
% CAF 10 uM @ 60 min (60 min incubation): 83.4%

C=CC(=O)N1[C@H](C)CN(c2nc(=O)n3c4c(c(-c5cc(Cl)c(F)cc5F)c(C(F)(F)F)cc24)SC[C@@H](N2CCCC2)C3)C[C@@H]1C (atropisomer, axis not shown) [Example 1138, (3S,11S)-8-((3S,5R)-4-acryloyl-3,5-dimethylpiperazin-1-yl)-11-(5-chloro-2,4-difluorophenyl)-3-(pyrrolidin-1-yl)-10-(trifluoromethyl)-3,4-dihydro-2H,6H-[1,4]thiazepino [2,3,4-ij]quinazolin-6-one]
% CAF 10 uM @ 60 min (60 min incubation): 50.5%

C=CC(=O)N1[C@H](C)CN(c2nc(=O)n3c4c(c(-c5ccc(F)cc5F)c(C(F)(F)F)cc24)SC[C@@H]3CN2C[C@@H]3C[C@H]2CO3)C[C@@H]1C (atropisomer, axis not shown) [Example 1300, (3S,10S)-3-(((1S,4S)-2-oxa-5-azabicyclo[2.2.1]heptan-5-yl)methyl)-7-((3S,5R)-4-acryloyl-3,5-dimethylpiperazin-1-yl)-10-(2,4-difluorophenyl)-9-(trifluoromethyl)-2,3-dihydro-5H-[1,4]thiazino[2,3,4-ij]quinazolin-5-one]
% CAF 10 uM @ 60 min (60 min): 90.8%

C=CC(=O)N1[C@H](C)CN(c2nc(=O)n3c4c(c(-c5ccc(F)cc5F)c(C(F)(F)F)cc24)SC[C@@H]3CN2C[C@@H]3C[C@H]2CO3)C[C@@H]1C (atropisomer, axis not shown) [Example 1301, (3S)-3-((1S,4S)-2-oxa-5-azabicyclo[2.2.1]heptan-5-ylmethyl)-7-((3S,5R)-4-acryloyl-3,5-dimethylpiperazin-1-yl)-10-(2,4-difluorophenyl)-9-(trifluoromethyl)-2H-[1,4]thiazino[2,3,4-ij]quinazolin-5(3H)-one]
% CAF 10 uM @ 60 min (60 min): 96.4%

C=CC(=O)N1CCN(c2nc(=O)n3c4c(c(-c5ccc(F)cc5F)c(C(F)(F)F)cc24)SC[C@@H]3CN2C[C@@H]3C[C@H]2CO3)CC1 (atropisomer, axis not shown) [Example 1305, (3S,10R)-3-(((1S,4S)-2-oxa-5-azabicyclo[2.2.1]heptan-5-yl)methyl)-7-(4-acryloylpiperazin-1-yl)-10-(2,4-difluorophenyl)-9-(trifluoromethyl)-2,3-dihydro-5H-[1,4]thiazino[2,3,4-ij]quinazolin-5-one]
% CAF 10 uM @ 60 min (60 min): 97.2%

C=CC(=O)N1CCN(c2nc(=O)n3c4c(c(-c5ccc(F)cc5F)c(C(F)(F)F)cc24)SC[C@@H]3CN2C[C@@H]3C[C@H]2CO3)CC1 (atropisomer, axis not shown) [Example 1306, (3S,10S)-3-(((1S,4S)-2-oxa-5-azabicyclo[2.2.1]heptan-5-yl)methyl)-7-(4-acryloylpiperazin-1-yl)-10-(2,4-difluorophenyl)-9-(trifluoromethyl)-2,3-dihydro-5H-[1,4]thiazino[2,3,4-ij]quinazolin-5-one]
% CAF 10 uM @ 60 min (60 min): 96.8%

C=CC(=O)N1C[C@H](C)N(c2nc(=O)n3c4c(c(-c5cc(Cl)c(F)cc5F)c(C(F)(F)F)cc24)SC[C@@H]3CN2CCC3(CC2)COC3)C[C@H]1C (atropisomer, axis not shown) [Example 1312, (3S,10S)-3-((2-oxa-7-azaspiro[3.5]nonan-7-yl)methyl)-7-((2S,5R)-4-acryloyl-2,5-dimethylpiperazin-1-yl)-10-(5-chloro-2,4-difluorophenyl)-9-(trifluoromethyl)-2,3-dihydro-5H-[1,4]thiazino[2,3,4-ij]quinazolin-5-one]
% CAF 10 uM @ 60 min (60 min): 72%

C=CC(=O)N1C[C@H](C)N(c2nc(=O)n3c4c(c(-c5cc(Cl)c(F)cc5F)c(C(F)(F)F)cc24)SC[C@@H]3CN2CCC3(CC2)COC3)C[C@H]1C (atropisomer, axis not shown) [Example 1313, (3S,10R)-3-((2-oxa-7-azaspiro[3.5]nonan-7-yl)methyl)-7-((2S,5R)-4-acryloyl-2,5-dimethylpiperazin-1-yl)-10-(5-chloro-2,4-difluorophenyl)-9-(trifluoromethyl)-2,3-dihydro-5H-[1,4]thiazino[2,3,4-ij]quinazolin-5-one]
% CAF 10 uM @ 60 min (60 min): 96.4%

C=CC(=O)N1C[C@H](C)N(c2nc(=O)n3c4c(c(-c5ccc(F)cc5F)c(C(F)(F)F)cc24)SC[C@@H]3CN2CCC3(CC2)COC3)C[C@H]1C (atropisomer, axis not shown) [Example 1314, (3S,10S)-3-((2-oxa-7-azaspiro[3.5]nonan-7-yl)methyl)-7-((2S,5R)-4-acryloyl-2,5-dimethylpiperazin-1-yl)-10-(2,4-difluorophenyl)-9-(trifluoromethyl)-2,3-dihydro-5H-[1,4]thiazino[2,3,4-ij]quinazolin-5-one]
% CAF 10 uM @ 60 min (60 min): 95.8%

C=CC(=O)N1C[C@H](C)N(c2nc(=O)n3c4c(c(-c5ccc(F)cc5F)c(C(F)(F)F)cc24)SC[C@@H]3CN2CCC3(CC2)COC3)C[C@H]1C (atropisomer, axis not shown) [Example 1315, (3S,10R)-3-((2-oxa-7-azaspiro[3.5]nonan-7-yl)methyl)-7-((2S,5R)-4-acryloyl-2,5-dimethylpiperazin-1-yl)-10-(2,4-difluorophenyl)-9-(trifluoromethyl)-2,3-dihydro-5H-[1,4]thiazino[2,3,4-ij]quinazolin-5-one]
% CAF 10 uM @ 60 min (60 min): 96.3%

C=CC(=O)N1CCN(c2nc(=O)n3c4c(c(-c5ccc(F)cc5F)c(C(F)(F)F)cc24)SC[C@@H]3CN2CCN(CC)CC2)CC1 (atropisomer, axis not shown) [Example 1317, (3S,10S)-7-(4-acryloylpiperazin-1-yl)-10-(2,4-difluorophenyl)-3-((4-ethylpiperazin-1-yl)methyl)-9-(trifluoromethyl)-2,3-dihydro-5H-[1,4]thiazino[2,3,4-ij]quinazolin-5-one]
% CAF 10 uM @ 60 min (60 min): 98.3%

C=CC(=O)N1CCN(c2nc(=O)n3c4c(c(-c5ccc(F)cc5F)c(C(F)(F)F)cc24)SC[C@@H]3CN2CCN(CC)CC2)CC1 (atropisomer, axis not shown) [Example 1318, (3S,10R)-7-(4-acryloylpiperazin-1-yl)-10-(2,4-difluorophenyl)-3-((4-ethylpiperazin-1-yl)methyl)-9-(trifluoromethyl)-2,3-dihydro-5H-[1,4]thiazino[2,3,4-ij]quinazolin-5-one]
% CAF 10 uM @ 60 min (60 min): 99.6%
